Patent publication US10457678B2, “Substituted pyrrolo[2,3-b]pyridines as inhibitors of cellular necroptosis” (Institut National de la Sante et de la Recherche Medicale …, priority 2015, dated 2019)
Entries after “also recorded” stand apart in the source; their conditions may differ. Where two headings read alike, the source gives them in different places.

What was measured:
[1] = tested on: Jurkat FADD-deficient I 2.1 cell line; test: Cell-based screening: necroptosis induced by TNF-α in Jurkat FADD-deficient cells, MTS viability assay; parameters: species or system human; details: for EC50: Homo sapiens, Jurkat FADD-deficient cells, TNF-α 10 ng/ml, 24 hours, MTS viability assay; for inhibition of necroptosis induced by TNF-α: human T lymphocyte, Jurkat FADD deficient cell line
Text: (§1) TNF-α can induce necroptosis in Jurkat cells (human T lymphocytes) when FADD was deleted. This model was used to screen various libraries of chemical compounds for characterization of new inhibitors of cellular necroptosis. Details on this cell-based assay can be found in Miao and Degterev (Methods Mol. Biol. 2009, 559, 79-93). The Jurkat FADD-deficient I 2.1 cell line used was purchased from ATCC and was maintained in RPMI 1640 medium (Gibco) containing Glutamax and 15% fetal calf serum (Life Technology). Necroptosis was induced by addition of 10 ng/ml of human recombinant TNF-α (Life Technology). Necrostatin-1 (Nec-1, Enzo Life Sciences) was used as model necroptosis inhibitor. Cells were maintained in 75 cm^2 flask and passed every 2 or 3 days. Chemical collections analysed were formatted in 96-well plates with 80 molecules per plates at 10 mM in 100% DMSO. For each collection plate, 2 cell plates were seeded (one necroptosis-induced with TNF-α and the other without TNF-α). Cells were seeded at 20000 cells/well, in 40 μl of medium, in a 96-well clear, flat bottom plate (CytoOne, Starlab) before treatment. Then, 40 μl of medium with or without TNF-α at 25 ng/ml were added to all wells in the corresponding plate. Immediately after TNF-α addition, 20 μl of diluted compound at 50 μM were added to the plates. Final concentration of each chemical compound was 10 μM at 0.1% DMSO. Four positives (Nec-1 at 10 μM final) and four negative (DMSO) controls were used in each plate to validate the assay. Cells were incubated at 37° C., 5% CO2 for 24 hours before performing MTS viability assay, described hereafter. Compounds were diluted before to treat cells. Liquid handling was performed using the Nimbus Microlab liquid handler (Hamilton Robotics) under microbiological safety workbench. The 10 mM compounds were diluted at 50 μM directly in cell medium.

L929sAhFas = test: Necroptosis induced by FasL + zVAD-fmk in L929sAhFas cells; type: cell-based; details: Mus musculus
Procedure: (§2) Besides, the EC50 of compound 7, compound 10 and necrostatin-1 (Nec-1) were determined in mouse or human cellular models of necroptosis induced by FasL+zVAD-fmk (a pan-caspase inhibitor), TRAIL+zVAD-fmk+Bp (Birinapant, a Smac mimetics) or TNF, and by using two cytotoxic assays (MTS Cell Proliferation assay or intracellular ATP level).

HT29 = test: Necroptosis induced by TRAIL + zVAD-fmk + Bp (Birinapant) in HT29 cells; type: cell-based, human; details: for anti-necroptotic effect by inducer (in words, summary of Table 1): TNF-, TRAIL- or FasL-induced necroptosis in mouse or human cellular models; for EC50: Homo sapiens, HT-29, HT29, TRAIL + Zvad + Bp
Procedure: as §2

Jurkat Fadd−/− = test: Necroptosis induced by TNF in Jurkat Fadd−/− cells (Table 1); type: cell-based; details: Homo sapiens
Text: as §1, §2

[2] = biological target: T1, Human RIPK1 full length GST-tagged (Homo sapiens, UniProt Q13546); test: RIPK1 autophosphorylation assay; type: biochemical; details: [γ-32P] ATP, radiographic film, FIG. 5
T1 construct: Human RIPK1 full length GST-tagged was baculovirally expressed in Sf9 cells; GST; made in house; host or cells: Sf9 insect cells (baculovirus, Bac-to-Bac expression system, Invitrogen)
T1 sequence (Q13546 1-671): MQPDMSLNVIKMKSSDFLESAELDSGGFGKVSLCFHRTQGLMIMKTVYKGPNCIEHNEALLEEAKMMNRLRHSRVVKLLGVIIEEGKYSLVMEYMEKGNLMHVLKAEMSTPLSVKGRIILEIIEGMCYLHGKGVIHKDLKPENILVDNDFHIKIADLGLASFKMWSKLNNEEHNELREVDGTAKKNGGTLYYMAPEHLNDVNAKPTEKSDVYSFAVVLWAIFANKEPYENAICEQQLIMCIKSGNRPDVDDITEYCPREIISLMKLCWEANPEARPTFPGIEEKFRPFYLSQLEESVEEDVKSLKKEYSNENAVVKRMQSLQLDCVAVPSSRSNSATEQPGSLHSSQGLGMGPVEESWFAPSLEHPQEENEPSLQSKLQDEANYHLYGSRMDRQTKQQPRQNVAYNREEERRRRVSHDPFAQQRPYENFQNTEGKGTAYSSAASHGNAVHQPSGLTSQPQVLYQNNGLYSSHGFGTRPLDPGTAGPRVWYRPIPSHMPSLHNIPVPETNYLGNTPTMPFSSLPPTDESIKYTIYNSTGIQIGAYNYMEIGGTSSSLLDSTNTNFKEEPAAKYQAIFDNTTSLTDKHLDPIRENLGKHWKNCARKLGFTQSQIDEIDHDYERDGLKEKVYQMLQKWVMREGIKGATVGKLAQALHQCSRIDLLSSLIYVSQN
Procedure: RIPK1 Autophosphorylation Assay: Human RIPK1 full length GST-tagged was baculovirally expressed in Sf9 cells according to manufacturer's instructions (Bac-to-Bac expression system, Invitrogen) and purified using gluthation-sepharose beads (GE Healthcare). The elution was made in 50 mM Tris-HCl, pH 8.0 buffer supplemented with 30 mM reduced gluthatione (Sigma). The protocol used to detect the enzymatic activity is adapted from Miao and Degterev (Methods Mol. Biol. 2009, 559, 79-93). Kinase reaction was initiated mixing 5 μl of eluted RIPK1, 5 μl of 3× kinase reaction buffer (5 mM MOPS pH 7.2, 2.5 mM β-glycerophosphate, 4 mM MgCl2, 2.5 mM MnCl2, 1 mM EGTA, 0.4 mM EDTA, 50 μg/ml BSA, 0.05 mM DTT), 2 μl H2O and 3 μl of the tested molecule. The mixture was kept on ice for 10 minutes. During the incubation, the ATP solution was prepared by mixing 5 μl of 3× kinase reaction buffer, 4 μl H2O, 6 μl cold ATP at 150 μM and 2 μCi of [γ-^32P] ATP. Add the ATP solution and the tested inhibitor to the kinase and incubate for 30 minutes at 30° C. To stop the enzymatic reaction, 5 μl of loading buffer were added and solution was heated for 3 minutes at 95° C. 25 μl of each reaction were loaded per well in pre-cast NuPage 12% Bis-Tris gel (Life Technology). Autophosphorylated RIPK1 band was visualized on radiographic film after 6 h exposition at −80° C.

[3] = MTS Cell Proliferation assay, read-out: EC50, MTS
[4] = intracellular ATP level, read-out: EC50, ATP level

`CCOc1ccc(-c2cc3cccn(C(=O)N(CC)CC)c-3n2)cc1` [Compound 7, 2-(4-ethoxyphenyl)-N,N-diethyl-7H-pyrrolo[2,3-b]pyridine-7-carboxamide] was tested, and the EC50 [1] was 7 µM, the “inhibition of necroptosis induced by TNF-α” value (from here on “inhibition … by TNF-α”) [1] was “dose-dependent inhibition” and the EC50 (L929sAhFas; [3]) was 10 µM. For the same molecule, the EC50 (L929sAhFas; [4]) was 5 µM, the “anti-necroptotic effect by inducer (in words, summary of Table 1)” value (HT29) was “only inhibits TNF- or FasL-induced necroptosis” and the EC50 (Jurkat Fadd−/−; [3]) was 10 µM. For the same molecule, the EC50 (Jurkat Fadd−/−; [4]) was 9.3 µM.
In the case of `CCOc1ccc(-c2cc3cccnc3n2C(C)=O)cc1` [Compound 10, 1-(2-(4-ethoxyphenyl)-1H-pyrrolo[2,3-b]pyridin-1-yl)ethan-1-one], the EC50 [1] is reported as 1.7 µM, the “inhibition … by TNF-α” value [1] is reported as “dose-dependent inhibition” and the EC50 (L929sAhFas; [3]) is reported as 3.5 µM. The EC50 (L929sAhFas; [4]) was 5 µM, the EC50 (HT29; [3]) was 4 µM and the EC50 (HT29; [4]) was 5 µM. For the same molecule, the “anti-necroptotic effect by inducer (in words, summary of Table 1)” value (HT29) was “inhibits TNF-, TRAIL- or FasL-induced necroptosis”, the EC50 (Jurkat Fadd−/−; [3]) was 4 µM and the EC50 (Jurkat Fadd−/−; [4]) was 2.6 µM. For the same molecule, the “inhibition of RIPK1 autophosphorylation (in words)” value [2] was “dose-dependent inhibition; also recorded: inhibits, in a dose-dependent fashion”.
With `CCOc1ccc(-c2cc3cccnc3n2C(=O)OC(C)(C)C)cc1` [Compound 17, tert-butyl 2-(4-ethoxyphenyl)-1H-pyrrolo[2,3-b]pyridine-1-carboxylate] the EC50 [1] was 3 µM and the “inhibition … by TNF-α” value [1] was “dose-dependent inhibition”.
In the case of `CCOc1ccc(-c2cc3cccn(C(=O)OCc4ccccc4)c-3n2)cc1` [Compound 21, benzyl 2-(4-ethoxyphenyl)-7H-pyrrolo[2,3-b]pyridine-7-carboxylate], the EC50 [1] is reported as 5 µM and the “inhibition … by TNF-α” value [1] is reported as “dose-dependent inhibition”.
For `CCOc1ccc(-c2cc3c(Cl)ccnc3n2C(=O)OC(C)(C)C)cc1` [Compound 26, tert-butyl 4-chloro-2-(4-ethoxyphenyl)-1H-pyrrolo[2,3-b]pyridine-1-carboxylate], the EC50 [1] was 2.4 µM and the “inhibition … by TNF-α” value [1] was “dose-dependent inhibition”.
In the case of `CCOc1ccc(-c2cc3cccnc3n2C(=O)OCC(Cl)(Cl)Cl)cc1` [Compound 32, 2,2,2-trichloroethyl 2-(4-ethoxyphenyl)-1H-pyrrolo[2,3-b]pyridine-1-carboxylate], the EC50 [1] is reported as 2.5 µM and the “inhibition … by TNF-α” value [1] is reported as “dose-dependent inhibition”.
For `CCOc1ccc(-c2cc3cccnc3n2C(=O)N2CCN(S(C)(=O)=O)C2=O)cc1` [Compound 33, 1-(2-(4-ethoxyphenyl)-1H-pyrrolo[2,3-b]pyridine-1-carbonyl)-3-(methylsulfonyl) imidazolidin-2-one], the EC50 [1] was 1 µM and the “inhibition … by TNF-α” value [1] was “dose-dependent inhibition”.
In the case of `CCOc1ccc(-c2cc3cccn(C(=O)N(C(C)C)C(C)C)c-3n2)cc1` [Compound 34, 2-(4-ethoxyphenyl)-N,N-diisopropyl-7H-pyrrolo[2,3-b]pyridine-7-carboxamide], the EC50 [1] is reported as 2 µM and the “inhibition … by TNF-α” value [1] is reported as “dose-dependent inhibition”.
With `CCOc1ccc(-c2cc3cccn(C(=O)N4CCCC4)c-3n2)cc1` [Compound 35, (2-(4-ethoxyphenyl)-7H-pyrrolo[2,3-b]pyridin-7-yl)(pyrrolidin-1-yl)methanone] the EC50 [1] was 3.5 µM and the “inhibition … by TNF-α” value [1] was “dose-dependent inhibition”.
For `CCOc1ccc(-c2cc3cccn(C(=O)N4CCN(C)CC4)c-3n2)cc1` [Compound 36, (2-(4-ethoxyphenyl)-7H-pyrrolo[2,3-b]pyridin-7-yl) (4-methylpiperazin-1-yl)methanone], the EC50 [1] was 1.05 µM and the “inhibition … by TNF-α” value [1] was “dose-dependent inhibition”.
Molecule `CN1C(=O)C(Cc2c[nH]c3ccccc23)NC1=S` (stereo not drawn) [Nec-1, necrostatin-1, reference compound] has an EC50 (L929sAhFas; [3]) of 10 µM, an EC50 (L929sAhFas; [4]) of 10 µM and an EC50 (HT29; [3]) of 1.2 µM. For the same molecule, the EC50 (HT29; [4]) was 2 µM, the EC50 (Jurkat Fadd−/−; [3]) was 1.3 µM and the EC50 (Jurkat Fadd−/−; [4]) was 1.3 µM.
